The text below walks through data of patent US20260259169A1, “BETA-LACTAMASE SUBSTRATE COMPOUNDS AND ELECTROCHEMICAL DETECTION METHODS USING THEM” (priority 2023, published 2026).

SMILES strings stand for the structures. Like-named read-outs stand apart in the source and are kept apart here.

One data set has as its target KPC (Klebsiella pneumoniae, UniProt Q9F663). The experiment in a line: Amperometric measurement of oxidation current with KPC in TPTZ buffer. It is filed as biochemical. The following applies: for detection of the beta-lactamases (oxidation current): KPC concentrations detected: succinate buffer pH 5.5, KPC 239.4, 59.85, 9.975 and 4.985 ng/ml; for detection of the beta-lactamases (oxidation current): KPC concentrations detected / detection of the beta-lactamase concentration of 9.975 ng/mL / detection of the lowest tested concentration of KPC / detection of the highest concentration of KPC: 30 minutes at 37° C.; for detection of the beta-lactamase concentration of 9.975 ng/mL: KPC 9.975 ng/mL; for detection of the lowest tested concentration of KPC / detection of the highest concentration of KPC: 6.0 mM substrate; for detection of the lowest tested concentration of KPC: KPC 59.85 ng/ml; for detection of the highest concentration of KPC: KPC 239.4 ng/ml. How it is done: A medium comprising 1.2 mM of substrate in a succinate buffer of pH 5.5 was prepared for each of the 8 beta-lactamase substrate compounds (7 inventive ones and the HMRZ-86 reference one).
4 different samples to be analyzed were prepared, each comprising KPC as beta-lactamase in a standard 2,4,6-tri-2-pyridinyl-1,3,5-triazine (TPTZ) buffer but in different concentrations: 239.4, 59.85, 9.975 and 4.985 ng/ml (ng of KPC per mL of TPTZ buffer). The two first concentrations of KPC aim to determine the capacity of the derivative to detect the presence of beta-lactamase whereas the two lowest concentrations aim to address the limit of detection.
Each of the […] (in other words 32 combinations) and incubated for 30 minutes at 37° C. Next, an amperometric measurement was performed on all 32 of the incubated mediums, and the oxidation current was determined. The device used was a Metrohm Dropsens and the electrodes were Metrohm Dropsens SCPE 110 electrodes. The oxidation current is the maximum current value measured between 0.1 V and 0.5 V vs. Ag/AgCl.
To test the impact of the concentration of the beta-lactamase substrate compound on the possibility to detect beta-lactamases, a further medium comprising 2.4 mM of the beta-lactamase substrate compound with R being 2-nitro-4-cyanophenyl was prepared. […] The same four beta-lactamase concentrations as in Example 1 were tested (i.e. the same samples). The incubation and measurement were performed as in Example 1.
A medium comprising 6.0 mM of each substrate in a succinate buffer of pH 5.5 was prepared. 2 different samples to be analyzed were prepared, each comprising KPC as beta-lactamase type in a standard 2,4,6-tri-2-pyridinyl-1,3,5-triazine (TPTZ) buffer, but in different concentrations: 239.4 ng/ml and 59.85 ng/ml, respectively (ng of KPC per mL of TPTZ buffer). Each of the […] was added to each of the 2 mediums (in other words 6 combinations) and incubated for 30 minutes at 37° C. Next, an amperometric measurement was performed on all 6 of the incubated mediums, and the oxidation current was determined. The equipment used was the same as that of Example 1.

The subject of data set [1] is bacteria strains that produce KPC/OXA-48. The experiment in a line: Amperometric detection in blood culture. It counts as cell-based. The following applies: 2.4 mM versus HMRZ-86 1.2 mM. As to the method:
(§1) The possibility of the beta-lactamase substrate compounds to detect bacteria strains producing different beta-lactamases was tested for the reference HMRZ-86 of example 1 (at 1.2 mM) and the beta-lactamase substrate compound with R being 2-nitro-4-cyano of Example 1 (at 2.4 mM). […] Consequently, amperometric voltammetry of the negative control with ATCC should give an oxidation current of 0 nA for the measurement to be valid.

A short description of data set [2]: NMR stability study in relation to a 22 mM succinate buffer reference. It is filed as physicochemical. As to the method:
(§2) The stability of the beta-lactamase substrate compounds over time at different temperatures was tested the reference HMRZ-86 of example 1 (at 1.2 mM) and the beta-lactamase substrate compound with R being 2-nitro-4-cyano of Example 1 (at 2.4 mM).
The stability of both beta-lactamase substrate compounds was also tested in relation to a 22 mM succinate buffer reference. […] Contrary to the dimethylformamide (DMF) reference, the degradation in relation to the succinate buffer was similar for both substrate compounds, with the first degradation starting after 2 weeks at both temperatures.

Data set [3] concerns bacteria strains that produce VIM type. The experiment in a line: Amperometric detection in blood culture. It is filed as cell-based. The following applies: 2.4 mM versus HMRZ-86 1.2 mM. How it is done: as §1
The beta-lactamase with group β being CF3 (6.0 mM), as well as the reference HMRZ-86 (1.2 mM) were also tested with blood cultures comprising bacteria strains producing the carbapenemase KPC type, the metallo-beta-lactamase VIM type and the metallo-beta-lactamase NDM type, as well as a blood culture comprising no bacteria strains producing beta-lactamases (negative control ATCC).

Data set [4] can be described thus: NMR stability study in relation to a dimethylformamide (DMF) reference. It counts as physicochemical. As to the method:
More particularly, when the degradation is determined by means of NMR measurements, a first sample comprising the beta-lactamase substrate compound according to the present disclosure and a second sample comprising the reference, e.g. DMF, are heated or cooled to a predefined temperature, after which the NMR measurement is performed on both samples (measurement at time=0). The same measurement is repeated on the samples after a predefined time (time=x), while their temperature is kept constant at the predefined temperature from time=0 to time=x. The difference of the integration of NMR measurement signals of both samples is determined by comparing between time=0 and time=x, thereby allowing to define the degree (percentage) of degradation of the beta-lactamase substrate compound at time=x.
as §2
The stability was tested by a NMR stability study. The degradation was measured by measuring the evolution of the integration of NMR measurement signals of the molecule in relation to a dimethylformamide (DMF) reference. The stability of the beta-lactamase substrate compound is expressed by the percentage of degradation in function of time.
The stability of all 3 beta-lactamase substrate compounds (R being 4-cyanophenyl, group β being H, CH3 and CF3, respectively), as well as the beta-lactamase having the same group R and a group β according to formula II was tested at 20° C. in DMF as reference.

For the next data set, the system named is OXA-40. Description: Amperometric detection of beta-lactamase type producing bacteria strains. It is filed as cell-based. The following applies: 6.0 mM substrate, HMRZ-86 1.2 mM; qualitative. How it is done:
(§3) The possibility to detect different beta-lactamase type producing bacteria strains was also tested. As reference, a reference medium comprising 1.2 mM beta-lactamase substrate compound HMRZ-86 was prepared as well.

For another data set, the system named is OXA-48. The description is as above. It is filed as cell-based. The following applies: 6.0 mM substrate, HMRZ-86 1.2 mM; qualitative. As to the method: as §3
The subject of another data set is OXA-58. Described as above. It counts as cell-based. The following applies: 6.0 mM substrate, HMRZ-86 1.2 mM; qualitative. How it is done:
as §3

In another data set the test system is CTXM. The data set is described as above. It counts as cell-based. The following applies: 6.0 mM substrate, HMRZ-86 1.2 mM; qualitative. As to the method:
as §3

With `CC(C)(ON=C(C(=O)NC1C(=O)N2C(C(=O)O)=C(C=Cc3ccc(C#N)cc3C#N)CSC12)c1csc(N)n1)C(=O)O` (stereo not drawn) [2,4-dicyano], the “detection of the beta-lactamases (oxidation current): KPC concentrations detected” value on KPC (1.2 mM substrate) is given as “only the 2 highest concentrations were detected”.

Turning to `CC(C)(ON=C(C(=O)NC1C(=O)N2C(C(=O)O)=C(C=Cc3ccc(C#N)cc3[N+](=O)[O-])CSC12)c1csc(N)n1)C(=O)O` (stereo not drawn) [2-nitro-4-cyano], the “oxidation current compared with HMRZ-86” value in data set [1] and in [3] was “significantly higher” throughout. Also, the “detection of the beta-lactamases (oxidation current): KPC concentrations detected” value at KPC (1.2 mM substrate) is recorded as “all 4 concentrations”. On KPC (2.4 mM substrate, 4 KPC concentrations), the “oxidation current compared with 1.2 mM HMRZ-86 reference” value is listed as “in line with these of the 1.2 mM HMRZ-86 reference”. For the same molecule, on KPC (2.4 mM substrate, KPC 239.4 and 59.85 ng/ml), the “oxidation current compared with 1.2 mM HMRZ-86 reference, 2 highest beta-lactamase concentrations” value is given as “higher than the reference”. In addition, the “oxidation current on increasing the substrate concentration” value at KPC (2.4 mM versus 1.2 mM substrate, 4 KPC concentrations) is reported as “significantly increases the oxidation current”. Besides, the “time at which the first degradation starts” value in data set [2] (4° C.) and in [2] (20° C.) was 2 weeks in each case.

`CC(C)(ON=C(C(=O)NC1C(=O)N2C(C(=O)O)=C(C=Cc3ccc([N+](=O)[O-])c([N+](=O)[O-])c3)CSC12)c1csc(N)n1)C(=O)O` (stereo not drawn) [3,4-dinitrophenyl]: at KPC (1.2 mM substrate), the “detection of the beta-lactamase concentration of 9.975 ng/mL” value is recorded as “could detect”.

Consider `CC(C)(ON=C(C(=O)NC1C(=O)N2C(C(=O)O)=C(C=Cc3cc([N+](=O)[O-])cc([N+](=O)[O-])c3)CSC12)c1csc(N)n1)C(=O)O` (stereo not drawn) [3,5-dinitrophenyl], for which the “detection of the beta-lactamase concentration of 9.975 ng/mL” value on KPC (1.2 mM substrate) is given as “this was not the case”.

As to `CC(C)(ON=C(C(=O)NC1C(=O)N2C(C(=O)O)=C(C=Cc3ccc(C#N)cc3)CSC12)c1csc(N)n1)C(=O)O` (stereo not drawn) [4-cyanophenyl], the “oxidation current, compared among R groups with a single moiety at the para-position” value on KPC (1.2 mM substrate, 4 KPC concentrations, FIG. 2) is “highest oxidation currents”. For the same molecule, the degradation result in [4] (20° C., up to 26 weeks, DMF reference) is “no signs of degradation”.

As to `CC(=O)NC1C(=O)N2C(C(=O)O)=C(C=Cc3ccc(C#N)cc3)CSC12` (stereo not drawn) [CH3], the “detection of the lowest tested concentration of KPC” value at KPC is “only the “H” and “CF3” groups are capable to detect the lowest tested concentration”. Moreover, the “detection of the highest concentration of KPC” value at KPC is recorded as “capable to detect”. The “time of first signs of degradation” value in [4] (20° C., DMF reference, up to 26 weeks) is given as 1 weeks. Moreover, the “detection (oxidation current)” value in the data set with OXA-40, with OXA-48, in the data set with OXA-58 and in the data set with CTXM was “detect OXA-48 type only” throughout.

For `N#Cc1ccc(C=CC2=C(C(=O)O)N3C(=O)C(NC=O)C3SC2)cc1` (stereo not drawn) [H], the “detection of the lowest tested concentration of KPC” value on KPC is listed as “capable to detect”. Also, at KPC, the “detection of the highest concentration of KPC” value is “capable to detect”. The “time of first signs of degradation” value in data set [4] is reported as 13 weeks. For the same molecule, the “detection (oxidation current)” value with OXA-40, in the data set with OXA-48, with OXA-58 and with CTXM was “capable of detecting” in each case.
